This experiment addresses T1, HIV protease (Human immunodeficiency virus type 1 group M subtype B, UniProt P04585).
T1 construct: made in house; host or cells: Escherichia coli
Kind of experiment: biochemical. The settings on record: protease expressed in Eschericia coli; peptide substrate 0.5 mg/mL; 50 mM Na acetate, pH 5.5, 30°C, 1 hour. As for the experimental part:
Assay for Inhibition of Microbial Expressed HIV Protease
Inhibition studies of the reaction of the protease expressed in Eschericia coli with a peptide substrate [Val-Ser-Gln-Asn-(betanapthyl)Ala-Pro-Ile-Val, 0.5 mg/mL at the time the reaction is initiated] were in 50 mM Na acetate, pH 5.5, at 30°C for 1 hour. Various concentrations of inhibitor in 1.0 ul DMSO were added to 25 ul of the peptide solution in water. The reaction is initiated by the addition of 15 ul of 0.33 nM protease (0.11 ng) in a solution of 0.133 M Na acetate pH 5.5 and 0.1% bovine serum albumin. The reaction was quenched with 160 ul of 5% phosphoric acid. Products of the reaction were separated by HPLC (VYDAC wide pore 5 cm C-18 reverse phase, acetonitrile gradient, 0.1 % phosphoric acid). The extent of inhibition of the reaction was determined from the peak heights of the products.

IC50 data for two compounds are collected here from EP0617968B1, “HIV protease inhibitors in pharmaceutical combinations for the treatment of AIDS” (Merck & Co., Inc., priority 1993, dated 1994).

pIC50: −log10 of the molar value.

By pIC50 is commonly meant the IC50 on a negative log10 scale, so that one unit is a factor of ten. Lower therefore signals a high IC50. Turning to `CC(C)(C)NC(=O)[C@@H]1C[C@@H]2CCCC[C@@H]2CN1C[C@@H](O)C[C@@H](Cc1ccccc1)C(=O)N[C@H]1c2ccccc2C[C@H]1O` [A, N-(2(R)-hydroxy-1(S)-indanyl)-2(R)-phenylmethyl-4(S)-hydroxy-5-(2-(3(S)-N'-(t-butylcarbamoyl)-(4aS,8aS)-decahydroisoquinoline)yl)-pentaneamide], the pIC50 is 8.22 to 9.52.
For the compound `CC(C)(C)NC(=O)[C@@H]1CN(C(=O)OCc2ccccc2)CCN1C[C@@H](O)C[C@@H](Cc1ccccc1)C(=O)N[C@H]1c2ccccc2C[C@H]1O` [B, N-(2(R)-hydroxy-1(S)-indanyl)-2(R)-phenylmethyl-4(S)-hydroxy-5-(1-(4-carbobenzyloxy-2(S)-N'-(t-butylcarbamoyl)-piperazinyl))-pentaneamide], the pIC50 is 8.22 to 9.52.
